Assay results reported in patent US20190255019A1, “NOVEL DOSAGE REGIMEN” (Biogen MA Inc., priority 2016, published 2019).
Read-outs that look alike come from different tables or passages of the source.

Key:
[1] = cited from earlier work
Human Nav1.7 = Human Nav1.7 (Homo sapiens, UniProt Q15858); assay: In vitro assay quantifying block of hNav1.7 at mid point inactivation, read at free plasma Cmax; format: biochemical; conditions: at free plasma Cmax of 200 mg bid
Description: In Table 1, free plasma CMax exposures of Example 1 obtained from modelling different dosing regimens were used to quantify the resulting amount of block at the primary target hNaV1.7. […] Doses of marketed drugs used in trigeminal neuralgia were compared using the same paradigm.

trigeminal neuralgia = conditions: 200 mg bid, TN; cited from earlier work

Chain of Human Nav1.7 (Q15858 whole entry): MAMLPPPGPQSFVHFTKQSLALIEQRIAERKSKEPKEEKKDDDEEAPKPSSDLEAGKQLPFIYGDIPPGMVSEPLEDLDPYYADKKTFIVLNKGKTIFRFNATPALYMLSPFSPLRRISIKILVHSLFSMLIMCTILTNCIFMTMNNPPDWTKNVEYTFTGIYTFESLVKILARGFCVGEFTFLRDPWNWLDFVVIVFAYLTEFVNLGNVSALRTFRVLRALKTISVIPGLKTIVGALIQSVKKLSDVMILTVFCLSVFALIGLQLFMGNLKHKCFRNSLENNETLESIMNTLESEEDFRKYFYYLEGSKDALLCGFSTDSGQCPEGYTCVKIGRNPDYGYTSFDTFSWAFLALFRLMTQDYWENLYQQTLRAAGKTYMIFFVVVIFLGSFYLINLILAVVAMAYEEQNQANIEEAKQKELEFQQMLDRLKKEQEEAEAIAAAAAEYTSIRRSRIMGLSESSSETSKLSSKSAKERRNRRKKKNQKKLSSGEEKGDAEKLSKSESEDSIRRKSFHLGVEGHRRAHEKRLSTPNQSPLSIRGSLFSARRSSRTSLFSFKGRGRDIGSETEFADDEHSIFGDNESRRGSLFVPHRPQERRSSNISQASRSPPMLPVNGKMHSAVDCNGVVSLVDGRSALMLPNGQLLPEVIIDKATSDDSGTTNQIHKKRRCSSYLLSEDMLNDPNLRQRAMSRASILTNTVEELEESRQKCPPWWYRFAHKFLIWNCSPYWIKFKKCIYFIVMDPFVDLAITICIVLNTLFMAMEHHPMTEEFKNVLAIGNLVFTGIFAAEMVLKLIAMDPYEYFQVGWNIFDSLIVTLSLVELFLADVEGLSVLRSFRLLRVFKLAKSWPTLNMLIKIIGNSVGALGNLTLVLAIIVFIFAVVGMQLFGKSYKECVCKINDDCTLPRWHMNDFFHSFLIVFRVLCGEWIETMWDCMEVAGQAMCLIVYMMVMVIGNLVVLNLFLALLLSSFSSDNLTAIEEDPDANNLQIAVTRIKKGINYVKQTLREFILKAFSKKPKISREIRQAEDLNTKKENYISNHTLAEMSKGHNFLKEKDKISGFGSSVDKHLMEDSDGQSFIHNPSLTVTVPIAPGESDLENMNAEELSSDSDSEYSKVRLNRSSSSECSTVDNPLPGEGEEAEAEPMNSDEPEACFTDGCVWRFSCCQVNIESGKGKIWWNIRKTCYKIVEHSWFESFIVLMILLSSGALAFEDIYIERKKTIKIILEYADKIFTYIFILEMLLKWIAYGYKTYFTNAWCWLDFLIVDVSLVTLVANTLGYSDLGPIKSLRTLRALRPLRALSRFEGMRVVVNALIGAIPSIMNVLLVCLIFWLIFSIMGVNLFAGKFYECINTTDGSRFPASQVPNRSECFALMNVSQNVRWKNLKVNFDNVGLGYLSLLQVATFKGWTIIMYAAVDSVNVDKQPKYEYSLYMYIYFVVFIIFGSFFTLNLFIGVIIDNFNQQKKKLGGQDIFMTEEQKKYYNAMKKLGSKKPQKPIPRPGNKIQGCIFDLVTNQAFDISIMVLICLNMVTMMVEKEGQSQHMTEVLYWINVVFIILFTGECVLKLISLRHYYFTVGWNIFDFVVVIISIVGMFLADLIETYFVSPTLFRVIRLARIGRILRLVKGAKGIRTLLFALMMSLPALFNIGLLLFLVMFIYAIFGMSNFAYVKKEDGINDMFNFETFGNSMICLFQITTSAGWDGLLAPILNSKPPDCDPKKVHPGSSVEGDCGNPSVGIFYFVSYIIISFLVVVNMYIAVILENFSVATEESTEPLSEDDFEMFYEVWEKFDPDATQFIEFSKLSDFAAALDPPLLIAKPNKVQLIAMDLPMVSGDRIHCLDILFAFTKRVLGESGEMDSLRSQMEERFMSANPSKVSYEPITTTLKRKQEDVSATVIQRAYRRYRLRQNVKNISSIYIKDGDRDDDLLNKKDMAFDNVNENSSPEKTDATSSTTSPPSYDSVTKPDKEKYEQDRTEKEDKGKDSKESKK

Row | Structure (SMILES) | Cmax Free plasma ([1]; Carbamazepine 200 mg qid) | Free fraction ([1]; Carbamazepine 200 mg qid) | Human Nav1.7 % Inhibition (Human Nav1.7) | Cmax Free plasma ([1]; Lamotrigine 200 mg bid) | Free fraction ([1]; Lamotrigine 200 mg bid) | Clinical efficacy (trigeminal neuralgia)
1 | NC(=O)N1c2ccccc2C=Cc2ccccc21 [Carbamazepine] | 4 to 12 µM | 24% | – | – | – | –
2 | Nc1nnc(-c2cccc(Cl)c2Cl)c(N)n1 [Lamotrigine] | – | – | 6% | 5.8 µM | 44% | NO EFFICACY
